Test results as given in PubChem BioAssay (NCI).
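1) Cells in 96-well plates. 2) Compound, 48 h, 5 concentrations. 3) Linear interpolation between surrounding doses. 4) Unreached endpoint = highest concentration. TGI: total growth inhibition.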

Key:
Experiment in all cases: DTP human tumour cell line panel, 48 h
786-0 renal = test system: 786-0 renal
A498 renal = test system: A498 renal
A549 NSCLC = test system: A549 NSCLC
ACHN renal = test system: ACHN renal
BT-549 breast = test system: BT-549 breast
CAKI-1 renal = test system: CAKI-1 renal
CCRF-CEM leukemia = test system: CCRF-CEM leukemia
COLO 205 colon = test system: COLO 205 colon
DU-145 prostate = test system: DU-145 prostate
EKVX NSCLC = test system: EKVX NSCLC
HCC-2998 colon = test system: HCC-2998 colon
HCT-116 colon = test system: HCT-116 colon
HCT-15 colon = test system: HCT-15 colon
HL-60(TB) leukemia = test system: HL-60(TB) leukemia
HOP-62 NSCLC = test system: HOP-62 NSCLC
HOP-92 NSCLC = test system: HOP-92 NSCLC
HS 578T breast = test system: HS 578T breast
HT29 colon = test system: HT29 colon
IGROV1 ovarian = test system: IGROV1 ovarian
K-562 leukemia = test system: K-562 leukemia
KM12 colon = test system: KM12 colon
LOX IMVI melanoma = test system: LOX IMVI melanoma
M14 melanoma = test system: M14 melanoma
MALME-3M melanoma = test system: MALME-3M melanoma
MCF7 breast = test system: MCF7 breast
MDA-MB-231 breast = test system: MDA-MB-231 breast
MDA-MB-435 = test system: MDA-MB-435
MDA-N = test system: MDA-N
MOLT-4 leukemia = test system: MOLT-4 leukemia
NCI-H226 lung = test system: NCI-H226 lung
NCI-H23 lung = test system: NCI-H23 lung
NCI-H460 lung = test system: NCI-H460 lung
NCI-H522 lung = test system: NCI-H522 lung
NCI/ADR-RES ovarian = test system: NCI/ADR-RES ovarian
OVCAR-3 ovarian = test system: OVCAR-3 ovarian
OVCAR-4 ovarian = test system: OVCAR-4 ovarian
OVCAR-5 ovarian = test system: OVCAR-5 ovarian
OVCAR-8 ovarian = test system: OVCAR-8 ovarian
PC-3 prostate = test system: PC-3 prostate
RPMI-8226 leukemia = test system: RPMI-8226 leukemia
RXF 393 renal = test system: RXF 393 renal
SF-268 CNS = test system: SF-268 CNS
SF-295 CNS = test system: SF-295 CNS
SF-539 CNS = test system: SF-539 CNS
SK-MEL-2 melanoma = test system: SK-MEL-2 melanoma
SK-MEL-28 melanoma = test system: SK-MEL-28 melanoma
SK-MEL-5 melanoma = test system: SK-MEL-5 melanoma
SK-OV-3 ovarian = test system: SK-OV-3 ovarian
SN12C renal = test system: SN12C renal
SNB-19 CNS = test system: SNB-19 CNS
SNB-75 CNS = test system: SNB-75 CNS
SR leukemia = test system: SR leukemia
SW-620 colon = test system: SW-620 colon
T-47D breast = test system: T-47D breast
TK-10 renal = test system: TK-10 renal
U251 CNS = test system: U251 CNS
UACC-257 melanoma = test system: UACC-257 melanoma
UACC-62 melanoma = test system: UACC-62 melanoma
UO-31 renal = test system: UO-31 renal
DLD-1 colon = test system: DLD-1 colon
DMS 114 small cell lung = test system: DMS 114 small cell lung
DMS 273 small cell lung = test system: DMS 273 small cell lung
LXFL 529 NSCLC = test system: LXFL 529 NSCLC
M19-MEL melanoma = test system: M19-MEL melanoma

Measured: TGI

Fc1cccc(CSc2ncnc3c2ncn3C2CCCS2)c1 (stereo not drawn)
26.3 µM: HCT-116 colon
82 µM: SN12C renal
34 µM: SR leukemia
96.7 µM: NCI/ADR-RES ovarian
56.8 µM: MDA-N
44 µM: NCI-H522 lung
75.7 µM: OVCAR-8 ovarian
22.7 µM: NCI-H460 lung
32.1 µM: HL-60(TB) leukemia
34.9 µM: LOX IMVI melanoma
24 µM: MOLT-4 leukemia
41.1 µM: SF-295 CNS
38.4 µM: MDA-MB-435
28.8 µM: UACC-62 melanoma
29.6 µM: UACC-257 melanoma
83.1 µM: OVCAR-4 ovarian
61.4 µM: NCI-H226 lung
62.1 µM: NCI-H23 lung
49.3 µM: MALME-3M melanoma
63.7 µM: MCF7 breast
42.2 µM: HCC-2998 colon
40.3 µM: HOP-62 NSCLC | SK-MEL-2 melanoma
42.8 µM: U251 CNS
25.8 µM: SF-539 CNS
52.1 µM: RPMI-8226 leukemia
36.2 µM: UO-31 renal
65.6 µM: SNB-75 CNS
24.4 µM: COLO 205 colon
22.5 µM: SK-MEL-5 melanoma
35.6 µM: OVCAR-3 ovarian
81.2 µM: EKVX NSCLC
50.4 µM: DU-145 prostate
41.8 µM: A498 renal
79.5 µM: BT-549 breast
67.4 µM: HOP-92 NSCLC
39.7 µM: ACHN renal
> 100 µM: A549 NSCLC | CAKI-1 renal | HCT-15 colon | HS 578T breast | IGROV1 ovarian | MDA-MB-231 breast | OVCAR-5 ovarian | PC-3 prostate | SF-268 CNS | SK-OV-3 ovarian | SNB-19 CNS | SW-620 colon | T-47D breast | TK-10 renal
51.5 µM: 786-0 renal
33.7 µM: M14 melanoma
38.9 µM: KM12 colon
46.6 µM: CCRF-CEM leukemia
92.2 µM: RXF 393 renal
32.7 µM: HT29 colon
50.8 µM: SK-MEL-28 melanoma
84.2 µM: K-562 leukemia

Cc1cc(Oc2cnc(=O)[nH]c2)cs1
> 100 µM: 786-0 renal | A498 renal | A549 NSCLC | ACHN renal | BT-549 breast | CAKI-1 renal | CCRF-CEM leukemia | COLO 205 colon | DU-145 prostate | EKVX NSCLC | HCC-2998 colon | HCT-116 colon | HCT-15 colon | HL-60(TB) leukemia | HOP-62 NSCLC | HS 578T breast | HT29 colon | IGROV1 ovarian | K-562 leukemia | KM12 colon | LOX IMVI melanoma | M14 melanoma | MALME-3M melanoma | MCF7 breast | MDA-MB-231 breast | MDA-MB-435 | MDA-N | MOLT-4 leukemia | NCI-H226 lung | NCI-H23 lung | NCI-H460 lung | NCI-H522 lung | NCI/ADR-RES ovarian | OVCAR-3 ovarian | OVCAR-5 ovarian | OVCAR-8 ovarian | PC-3 prostate | RPMI-8226 leukemia | SF-268 CNS | SF-295 CNS | SF-539 CNS | SK-MEL-2 melanoma | SK-MEL-28 melanoma | SK-MEL-5 melanoma | SK-OV-3 ovarian | SN12C renal | SNB-19 CNS | SNB-75 CNS | SR leukemia | SW-620 colon | T-47D breast | TK-10 renal | U251 CNS | UACC-257 melanoma | UACC-62 melanoma | UO-31 renal

COc1cc(O)c2c(=O)c(OC)c(-c3ccc4c(c3)OCO4)oc2c1OC
> 50 µM: 786-0 renal | A498 renal | A549 NSCLC | ACHN renal | BT-549 breast | CAKI-1 renal | CCRF-CEM leukemia | COLO 205 colon | DU-145 prostate | EKVX NSCLC | HCC-2998 colon | HCT-116 colon | HCT-15 colon | HL-60(TB) leukemia | HOP-62 NSCLC | HS 578T breast | HT29 colon | IGROV1 ovarian | K-562 leukemia | KM12 colon | LOX IMVI melanoma | M14 melanoma | MALME-3M melanoma | MCF7 breast | MDA-MB-231 breast | MDA-MB-435 | MDA-N | MOLT-4 leukemia | NCI-H226 lung | NCI-H23 lung | NCI-H460 lung | NCI-H522 lung | NCI/ADR-RES ovarian | OVCAR-3 ovarian | OVCAR-4 ovarian | OVCAR-5 ovarian | OVCAR-8 ovarian | PC-3 prostate | RXF 393 renal | SF-268 CNS | SF-295 CNS | SF-539 CNS | SK-MEL-2 melanoma | SK-MEL-28 melanoma | SK-MEL-5 melanoma | SK-OV-3 ovarian | SN12C renal | SNB-19 CNS | SW-620 colon | T-47D breast | TK-10 renal | U251 CNS | UACC-257 melanoma | UACC-62 melanoma | UO-31 renal
31.9 µM: SNB-75 CNS
44.2 µM: HOP-92 NSCLC

CCOC(=O)[C@H]1CSC[C@@H](C(=O)OC)N1
> 100 µM: 786-0 renal | A498 renal | A549 NSCLC | ACHN renal | CAKI-1 renal | CCRF-CEM leukemia | COLO 205 colon | DLD-1 colon | DMS 114 small cell lung | DMS 273 small cell lung | EKVX NSCLC | HCC-2998 colon | HCT-116 colon | HCT-15 colon | HL-60(TB) leukemia | HOP-62 NSCLC | HT29 colon | IGROV1 ovarian | K-562 leukemia | KM12 colon | LOX IMVI melanoma | LXFL 529 NSCLC | M14 melanoma | M19-MEL melanoma | MALME-3M melanoma | MOLT-4 leukemia | NCI-H23 lung | NCI-H460 lung | NCI-H522 lung | OVCAR-3 ovarian | OVCAR-4 ovarian | OVCAR-5 ovarian | OVCAR-8 ovarian | RPMI-8226 leukemia | RXF 393 renal | SF-268 CNS | SF-295 CNS | SK-MEL-2 melanoma | SK-MEL-28 melanoma | SK-MEL-5 melanoma | SK-OV-3 ovarian | SN12C renal | SNB-19 CNS | SNB-75 CNS | SR leukemia | SW-620 colon | TK-10 renal | U251 CNS | UACC-257 melanoma | UACC-62 melanoma | UO-31 renal
